{
  "source": "patent US20100261774A1",
  "about": "“Methods for the modulation of Leishmania major infection in mammals” (Children's Hospital Medical Center, priority 2009, published 2010)",
  "key": {"[1]": {"test_system": "T. gondii", "details": "mouse, in vivo"}, "[2]": {"test_system": "T. gondii (ME49 strain)", "description": "(B) Parasite burden. […] (C) Serum IFN-γ. (D) Serum TNF-α. (E) Serum IL-10. Systemic cytokine production was quantified by the CCA assay 30 d after infection. […] Values shown are means±SE of 8 mice/group. (F) Kinetic analysis of parasite burden in the experiment depicted in FIG. 1A. […] (G) IL-12/23p40 mRNA. (H) IFN-γ mRNA. (I) TNF-α mRNA. (J) IL-10 mRNA. Cytokine mRNA was quantified in brain by qRT-PCR 30 d after infection.\nTo evaluate parasite load, infected animals were killed and the number of T. gondii cysts present in brain homogenates from these animals were counted."}, "[3]": {"test_system": "visceral leishmaniasis", "test": "Treatment of visceral leishmaniasis in patients with oral 1-MT", "type": "in vivo", "source_text": "Patients present with symptoms of fever and organomegaly of long standing that is unresponsive to standard treatment, possibly with attendant anemia and pancytopenia, with a history of travel in an area in which leishmaniasis is known to be endemic. Laboratory tests confirm a diagnosis of visceral […]. […] Patients present with symptoms of fever and organomegaly of long standing that is unresponsive to standard treatment, possibly with attendant anemia and pancytopenia, with a history of travel in an area in which leishmaniasis is known to be endemic. Laboratory tests confirm a diagnosis of visceral leishmaniasis. […] Patients present with symptoms of fever and organomegaly of long standing that is unresponsive to standard treatment, possibly with attendant anemia and pancytopenia, with a history of travel in an area in which leishmaniasis is known to be endemic. Laboratory tests confirm a diagnosis of visceral leishmaniasis."}, "[4]": {"test_system": "Leishmania major clone V1 (MHOM/IL/80/Friedlin)", "protocol": "(B) Parasite burden. Quantification of parasite outgrowth from titrations of ear tissue lysates was performed at the indicated times. Values shown are means+SE of 6 mice/group. […] The effect of IDO inhibition during cutaneous leishmaniasis on antigen-specific cytokine production. […] (F) IL-10. Cytokines were quantified by ELISA in the supernatants of soluble L. major antigen-stimulated cells isolated from draining lymph nodes 4 wk after infection. Values shown are means+SE of 6 mice/group. *P<0.05.\nLesion size was quantified with a vernier caliper. Parasite burden was quantified by determining the highest dilution of ear tissue lysates in which promastigote outgrowth could be detected out after 7 days of incubation. […] Cells isolated from lymph nodes draining lesions were incubated with L major promastigote lysates.\nCytokines were quantified by ELISA in culture supernatants harvested 48 h later."}, "[5]": {"details": "L. major antigen-stimulated, ELISA, 4 wk after infection, vs untreated"}, "[6]": {"details": "early phase of parasite clearance (4 wk after infection), CCA assay"}},
  "note": "Like-named read-outs stand apart in the source and are kept apart here.",
  "data": [
    {"smiles": "Cn1cc(C[C@H](N)C(=O)O)c2ccccc21", "note": "[1-MT, 1-methyl tryptophan]", "values": [
      {"measurement": "disease course and mortality", "setting": "[1]", "result": "reactivation of disease and increased mortality"},
      {"measurement": "local and systemic production of inflammatory mediators", "setting": "[1]", "result": "relatively little differences"},
      {"measurement": "serum levels of IFN-γ, TNF-α and IL-10", "setting": "[2]; CCA assay, 30 d after infection, vs control", "result": "No significant alteration"},
      {"measurement": "mortality", "setting": "[2]; T. gondii-infected mice given 1-MT, FIG. 1A", "result": 100, "unit": "%"},
      {"measurement": "mRNA expression of IL-12/23p40, IFN-γ, TNF-α and IL-10 in the central nervous system", "setting": "[2]; qRT-PCR in brain, 30 d after infection, vs control", "result": "lack of biologically important changes"},
      {"measurement": "mortality", "setting": "[2]; second independent experiment, not pictured, 1-MT vs control", "result": 100, "unit": "%"},
      {"measurement": "amelioration of symptoms of visceral leishmaniasis", "setting": "[3]; oral 1-MT 12.5-75 mg/kg/day with a drug such as amphotericin at less than usual doses, Example 4", "result": "equivalent to that achieved with standard drug therapy alone"},
      {"measurement": "amelioration of symptoms of visceral leishmaniasis", "setting": "[3]; oral 1-MT 12.5-75 mg/kg/day with a drug such as amphotericin at normal doses, Example 3", "result": "more rapid than that observed with standard drug therapy alone"},
      {"measurement": "symptoms of visceral leishmaniasis", "setting": "[3]; oral 1-MT approximately 12.5-75 mg/kg/day alone, Example 2", "result": "Amelioration of symptoms is observed"},
      {"measurement": "serum levels of IL-4", "setting": "[4]; 1-MT treated vs untreated infected mice, data not shown", "result": "no differences"},
      {"measurement": "IFN-γ protein produced by cells from draining lymph nodes", "setting": "[4]; [5]", "result": "Relatively more"},
      {"measurement": "IL-10 produced by T cells from draining lymph nodes", "setting": "[4]; [5]", "result": "relatively less"},
      {"measurement": "serum IFN-γ", "setting": "[4]; [6]", "result": "significantly increased"},
      {"measurement": "serum IL-10 concentrations", "setting": "[4]; [6]", "result": "decreased"},
      {"measurement": "lesional size", "setting": "[4]; first weeks after infection while lesion size increasing, vs untreated", "result": "No overt differences"},
      {"measurement": "lesional size", "setting": "[4]; post apex period, weeks 4-12 post infection, vs untreated", "result": "significantly smaller"},
      {"measurement": "parasite burden", "setting": "[4]; weeks 4 through 12 post infection, vs controls, FIG. 4B", "result": "significantly lower"}
    ]}
  ]
}
